Structures are written as SMILES.

This experiment deals with Human CD38 (Homo sapiens (Human), UniProt P28907). The experiment in a line: CD38 enzyme assay. The class given is biochemical. To be noted: 2 nM CD38, 30 min preincubation at 25° C., absorbance at 405 nm after 60 minutes. From the text: [formula] where CMPD is the value for the individual compound treated well, MIN is the average of the values of the 4-(((1r,4r)-4-(2-methoxyethoxy)cyclohexyl)amino)-1-methyl-6-(thiazol-5-yl)quinolin-2(1H)-one positive control wells and MAX is the average of the values of the DMSO negative control wells.
Sequence of Human CD38 (P28907 whole entry): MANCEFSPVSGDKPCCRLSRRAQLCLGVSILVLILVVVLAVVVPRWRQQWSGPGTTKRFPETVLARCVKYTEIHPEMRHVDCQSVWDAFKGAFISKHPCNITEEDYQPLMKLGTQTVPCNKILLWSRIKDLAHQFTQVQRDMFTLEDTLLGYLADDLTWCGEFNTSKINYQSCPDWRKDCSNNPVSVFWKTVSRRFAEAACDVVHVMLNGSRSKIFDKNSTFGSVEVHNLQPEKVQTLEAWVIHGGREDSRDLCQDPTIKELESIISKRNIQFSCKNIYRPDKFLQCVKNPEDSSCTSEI
The % inhibition values were plotted as a function of compound concentration and the following 4-parameter fit was applied to derive the IC50 values:
[formula] where top and bottom are normally allowed to float, but may be fixed at 100 or 0 respectively in a 3-parameter fit. The Hill Coefficient is normally allowed to float but may also be fixed at 1 in a 3-parameter fit. Y is the % inhibition and X is the compound concentration.
For the compound `COCCO[C@H]1CC[C@H](Nc2cc(=O)n(C)c3ccc(-n4ccnc4)cc23)CC1` [Example 1, 6-(1H-imidazol-1-yl)-4-(((1r,4r)-4-(2-methoxyethoxy)cyclohexyl)amino)-1-methylquinolin-2(1H)-one], the IC50 (commonly the concentration at which inhibition is half-maximal) is 10 to 100 nM. For the compound `Cn1c(=O)cc(N[C@H]2CC[C@H](NC3COC3)CC2)c2cc(-n3ccnc3)ccc21` [Example 2, 6-(1H-imidazol-1-yl)-1-methyl-4-(((1r,4r)-4-(oxetan-3-ylamino)cyclohexyl)amino)quinolin-2(1H)-one], the IC50 lay in the range of 10 to 100 nM. For `COCCO[C@H]1CC[C@H](Nc2cc(=O)n(C)c3ccc(-n4ccnc4)nc23)CC1` [Example 3, 6-(1H-imidazol-1-yl)-4-(((1r,4r)-4-(2-methoxyethoxy)cyclohexyl)amino)-1-methyl-1,5-naphthyridin-2(1H)-one], the IC50 fell in the range of 10 to 100 nM. The result for `Cn1c(=O)cc(N[C@H]2CC[C@H](C(C)(C)O)CC2)c2nc(-n3ccnc3)ccc21` [Example 4, 4-(((1r,4r)-4-(2-hydroxypropan-2-yl)cyclohexyl)amino)-6-(1H-imidazol-1-yl)-1-methyl-1,5-naphthyridin-2(1H)-one] reads 10 to 100 nM; that for `Cn1c(=O)cc(N[C@H]2CC[C@H](C(C)(C)O)CC2)c2cc(-n3ccnc3)ncc21` [Example 5, 4-(((1r,4r)-4-(2-hydroxypropan-2-yl)cyclohexyl)amino)-6-(1H-imidazol-1-yl)-1-methyl-1,7-naphthyridin-2(1H)-one], 10 to 100 nM; that for `COCCO[C@H]1CC[C@H](Nc2cc(=O)n(C)c3cnc(-n4ccnc4)cc23)CC1` [Example 6, 6-(1H-imidazol-1-yl)-4-(((1r,4r)-4-(2-methoxyethoxy)cyclohexyl)amino)-1-methyl-1,7-naphthyridin-2(1H)-one], 10 to 100 nM. In turn, `COCCO[C@H]1CC[C@H](Nc2cc(=O)n(C)c3cnc(-n4ccnc4)nc23)CC1` [Example 7, 2-(1H-imidazol-1-yl)-8-(((1r,4r)-4-(2-methoxyethoxy)cyclohexyl)amino)-5-methylpyrido[3,2-d]pyrimidin-6(5H)-one] had an IC50 of 10 to 100 nM.

`Cn1c(=O)cc(N[C@H]2CC[C@H](C(C)(C)O)CC2)c2nc(-n3ccnc3)ncc21` [Example 8, 8-(((1r,4r)-4-(2-hydroxypropan-2-yl)cyclohexyl)amino)-2-(1H-imidazol-1-yl)-5-methylpyrido[3,2-d]pyrimidin-6(5H)-one] yielded an IC50 of less than 10 nM.

Compound `Cn1c(=O)cc(Nc2ccc(C(F)(F)F)cc2)c2nc(-n3ccnc3)ncc21` [Example 9, 2-(1H-imidazol-1-yl)-5-methyl-8-((4-(trifluoromethyl)phenyl)amino)pyrido[3,2-d]pyrimidin-6(5H)-one] registered an IC50 of less than 10 nM.

`Cn1c(=O)cc(Nc2ccc(OCCN3CCOCC3)nc2)c2nc(-n3ccnc3)ncc21` [Example 10, 2-(1H-imidazol-1-yl)-5-methyl-8-((6-(2-morpholinoethoxy)pyridin-3-yl)amino)pyrido[3,2-d]pyrimidin-6(5H)-one]: the IC50 was in the range of 10 to 100 nM. `Cn1c(=O)cc(N[C@H]2CC[C@H](NCC(F)(F)F)CC2)c2cc(-n3ccnc3)ccc21` [Example 11, 6-(1H-imidazol-1-yl)-1-methyl-4-(((1r,4r)-4-((2,2,2-trifluoroethyl)amino)cyclohexyl)amino)quinolin-2(1H)-one] registered an IC50 of 10 to 100 nM.

For `Cn1c(=O)cc(N[C@H]2CC[C@H](C(C)(C)O)CC2)c2cc(-n3ccnc3)ccc21` [Example 12, 4-(((1r,4r)-4-(2-hydroxypropan-2-yl)cyclohexyl)amino)-6-(1H-imidazol-1-yl)-1-methylquinolin-2(1H)-one], the IC50 was in the range of 10 to 100 nM. In turn, `Cn1c(=O)cc(NC2CCN(S(C)(=O)=O)CC2)c2cc(-n3ccnc3)ccc21` [Example 13] showed an IC50 of 10 to 100 nM. For the compound `CN(C)C(=O)CO[C@H]1CC[C@H](Nc2cc(=O)n(C)c3ccc(-n4ccnc4)cc23)CC1` [Example 14, 2-(((1r,4r)-4-((6-(1H-imidazol-1-yl)-1-methyl-2-oxo-1,2-dihydroquinolin-4-yl)amino)cyclohexyl)oxy)-N,N-dimethylacetamide], the IC50 lay in the range of 10 to 100 nM. The result for `Cn1c(=O)cc(Nc2ccc(OCC(F)(F)F)nc2)c2cc(-n3ccnc3)ccc21` [Example 15, 6-(1H-imidazol-1-yl)-1-methyl-4-((6-(2,2,2-trifluoroethoxy)pyridin-3-yl)amino)quinolin-2(1H)-one] reads 10 to 100 nM; that for `CN(C)CCOc1ccc(Nc2cc(=O)n(C)c3ccc(-n4ccnc4)cc23)cn1` [Example 17, 4-((6-(2-(dimethylamino)ethoxy)pyridin-3-yl)amino)-6-(1H-imidazol-1-yl)-1-methylquinolin-2(1H)-one], 10 to 100 nM; that for `Cn1c(=O)cc(N[C@H]2CC[C@H](OCCN3CCCC3)CC2)c2cc(-n3ccnc3)ccc21` [Example 18, 6-(1H-imidazol-1-yl)-1-methyl-4-(((1r,4r)-4-(2-(pyrrolidin-1-yl)ethoxy)cyclohexyl)amino)quinolin-2(1H)-one], 10 to 100 nM. `Cn1c(=O)cc(N[C@H]2CC[C@H](NCC(C)(F)F)CC2)c2nc(-n3ccnc3)ncc21` [Example 19, 8-(((1r,4r)-4-((2,2-difluoropropyl)amino)cyclohexyl)amino)-2-(1H-imidazol-1-yl)-5-methylpyrido[3,2-d]pyrimidin-6(5H)-one] had an IC50 of less than 10 nM. In the case of `CN(C)C(=O)CO[C@H]1CC[C@H](Nc2cc(=O)n(C)c3cnc(-n4ccnc4)nc23)CC1` [Example 21, 2-(((1r,4r)-4-((2-(1H-imidazol-1-yl)-5-methyl-6-oxo-5,6-dihydropyrido[3,2-d]pyrimidin-8-yl)amino)cyclohexyl)oxy)-N,N-dimethylacetamide], the concentration for half-maximal inhibition (IC50) is 10 to 100 nM. `Cn1c(=O)cc(Nc2ccc(C#N)cc2)c2nc(-n3ccnc3)ncc21` [Example 22, 4-((2-(1H-imidazol-1-yl)-5-methyl-6-oxo-5,6-dihydropyrido[3,2-d]pyrimidin-8-yl)amino)benzonitrile] registered an IC50 of less than 10 nM. `Cn1c(=O)cc(N[C@H]2CC[C@H](NCC(F)(F)F)CC2)c2nc(-n3ccnc3)ncc21` [Example 23, 2-(1H-imidazol-1-yl)-5-methyl-8-(((1r,4r)-4-((2,2,2-trifluoroethyl)amino)cyclohexyl)amino)pyrido[3,2-d]pyrimidin-6(5H)-one] yielded an IC50 of less than 10 nM. As to `CO[C@H]1CC[C@H](Nc2cc(=O)n(C)c3cnc(-n4ccnc4)nc23)CC1` [Example 24, 2-(1H-imidazol-1-yl)-8-(((1r,4r)-4-methoxycyclohexyl)amino)-5-methylpyrido[3,2-d]pyrimidin-6(5H)-one], the IC50 was less than 10 nM. Compound `Cn1c(=O)cc(Nc2ccc(OCCN3CCCC3)nc2)c2nc(-n3ccnc3)ncc21` [Example 25] registered an IC50 of 10 to 100 nM.

In the case of `Cn1c(=O)cc(NC2CCC(F)(F)CC2)c2nc(-n3ccnc3)ncc21` [Example 26, 8-((4,4-difluorocyclohexyl)amino)-2-(1H-imidazol-1-yl)-5-methylpyrido[3,2-d]pyrimidin-6(5H)-one], the IC50 was less than 10 nM. For `Cn1c(=O)cc(N[C@H]2CC[C@H](C3(O)CC3)CC2)c2nc(-n3ccnc3)ncc21` [Example 27, 8-(((1r,4r)-4-(1-hydroxycyclopropyl)cyclohexyl)amino)-2-(1H-imidazol-1-yl)-5-methylpyrido[3,2-d]pyrimidin-6(5H)-one], the IC50 is less than 10 nM.
